# Tested on: hypertensive subjects
# Experiment: Seated automated office blood pressure (AOBP) in randomized, placebo-controlled, dose-ranging study
# Format: in vivo, human
# Settings: 100 mg QD, FAS; for Seated AOBP DBP change from baseline (CFB), Mean / Seated AOBP DBP, Mean / Seated AOBP SBP change from baseline (CFB), Mean / Seated AOBP SBP, Mean: Part 2
# Protocol: A randomized, double-blinded, placebo-controlled, dose-ranging, multicenter study was conducted to evaluate the effect of orally administered Compound A HBr on blood pressure for the treatment of hypertension in male and female subjects ≥18 years of age.
# The study consists of two parts. For enrollment into Part 1 of the study, a subject's value of plasma renin activity (PRA) must be ≤1 ng/mL/h based on morning measurement. If the value of PRA >1 ng/mL/h based on morning measurement, then subjects may be eligible to enter Part 2 of the study.
# For Part 1, 163 enrolled subjects ≥18 years of age were randomized into 6 equal treatment groups (1:1:1:1:1:1) to 12.5 mg BID, 25 mg BID, 12.5 mg QD, 50 mg QD, 100 mg QD, or placebo. After a review of interim clinical data, the 2 lowest dose levels (12.5 mg QD and 12.5 mg BID) were stopped for future randomization due to a lack of consistent meaningful reduction of blood pressure, but the patients randomized to that point remained in the study through completion. Thus, after the review of interim clinical data, subjects were randomized into 4 equal treatment groups (1:1:1:1) to 25 mg BID, 50 mg QD, 100 mg QD, or placebo.
# For Part 2, 36 enrolled subjects ≥18 years of age were randomized (5:1) to either 100 mg QD Compound A HBr or placebo such that the Compound A HBr treatment group consisted of approximately 30 subjects and the placebo treatment group will consist of approximately 6 subjects.
# Subjects orally administered the assigned study drug (Compound A HBr or placebo) according to the assigned dosing regimen for 8 weeks beginning on Study Day 1. All subjects in Part 1 (regardless of dosing group) received BID dosing to preserve the integrity of the blind; active drug is administered as the morning dose for all QD dose groups. Subjects returned to the research facility or were seen by the clinical investigator or approved home health care professional at the end of Study Weeks 1, 2, 3, 4, 5, 6, 7, and 8 (±2 days) for protocol-defined efficacy and safety assessments and procedures, assessment of adverse events (AEs), and confirmation of compliance with study drug usage. Subjects also completed a telephone visit and blood pressure (BP) check at home approximately 3 days post last dose of study drug. Subjects attended up to 14 full clinic visits, including a pre-Screening visit, a Screening/start of Placebo Run-in visit, a second visit during Placebo Run-in, a clinic visit to initiate the ABPM procedure, a Randomization visit, 8 weekly visits during double-blind treatment, and an end-of-study visit scheduled 4 weeks after the last study treatment for final efficacy and safety assessments.
# An automated oscillometric sphygmomanometer device was used to measure the subjects' systolic and diastolic blood pressure in office after approximately 5 minutes of rest in the seated position.
# The primary endpoint is the change in office-measured (mean of last 2 of 5 unattended measurements using an automated oscillometric sphygmomanometer device after approximately 5 minutes of rest in the seated position) systolic blood pressure (SBP) from baseline to the end of Study Week 8.
# Secondary endpoints of this study were: • (a) Change in 24-hour ambulatory blood pressure monitoring (ABPM) parameters (systolic and diastolic) from baseline to the end of Study Week 7. • (b) Change in office-measured SBP from baseline to the end of Study Weeks 1, 2, 3, 4, 5, 6, and 7. • (c) Change in office-measured diastolic blood pressure (DBP) from baseline to the end of Study Weeks 1, 2, 3, 4, 5, 6, 7, and 8. • (d) Proportion of subjects who achieve office-measured BP of ≤130/80 mm Hg by the end of Study Week 8.
smiles,measurement,setting,value
CC(=O)N[C@H]1CC[C@H](NC(=O)CN2CCN(c3nncc(-c4ccc(C)cc4)n3)CC2)CC1 [Compound A HBr],"Seated AOBP DBP change from baseline (CFB), Mean (SD)","Week 4, Part 1",−6.36 (6.75) mmHg
same,"Seated AOBP DBP, Mean (SD)","Week 4, Part 1",71.60 (8.62) mmHg
same,"Seated AOBP SBP change from baseline (CFB), Mean (SD)","Week 4, Part 1",−14.60 (11.66) mmHg
same,"Seated AOBP SBP, Mean (SD)","Week 4, Part 1",129.76 (12.66) mmHg
same,"Seated AOBP DBP change from baseline (CFB), Mean",Week 4,−6.92 mmHg
same,"Seated AOBP DBP, Mean",Week 4,71.36 mmHg
same,"Seated AOBP SBP change from baseline (CFB), Mean",Week 4,−16.04 mmHg
same,"Seated AOBP SBP, Mean",Week 4,125.44 mmHg
same,"Seated AOBP DBP change from baseline (CFB), Mean (SD)","Week 5, Part 1",−5.36 (8.12) mmHg
same,"Seated AOBP DBP, Mean (SD)","Week 5, Part 1",72.60 (11.27) mmHg
same,"Seated AOBP SBP change from baseline (CFB), Mean (SD)","Week 5, Part 1",−13.40 (16.59) mmHg
same,"Seated AOBP SBP, Mean (SD)","Week 5, Part 1",130.96 (14.84) mmHg
same,"Seated AOBP DBP change from baseline (CFB), Mean",Week 5,−6.35 mmHg
same,"Seated AOBP DBP, Mean",Week 5,71.31 mmHg
same,"Seated AOBP SBP change from baseline (CFB), Mean",Week 5,−12.87 mmHg
same,"Seated AOBP SBP, Mean",Week 5,127.92 mmHg
same,"Seated AOBP DBP change from baseline (CFB), Mean (SD)","Week 6, Part 1",−3.33 (7.96) mmHg
same,"Seated AOBP DBP, Mean (SD)","Week 6, Part 1",74.77 (10.12) mmHg
same,"Seated AOBP SBP change from baseline (CFB), Mean (SD)","Week 6, Part 1",−6.62 (15.69) mmHg
same,"Seated AOBP SBP, Mean (SD)","Week 6, Part 1",138.73 (14.13) mmHg
same,"Seated AOBP DBP change from baseline (CFB), Mean",Week 6,−7.25 mmHg
same,"Seated AOBP DBP, Mean",Week 6,70.65 mmHg
same,"Seated AOBP SBP change from baseline (CFB), Mean",Week 6,−13.29 mmHg
same,"Seated AOBP SBP, Mean",Week 6,127.58 mmHg
same,"Seated AOBP DBP change from baseline (CFB), Mean (SD)","Week 7, Part 1",−4.12 (8.55) mmHg
same,"Seated AOBP DBP, Mean (SD)","Week 7, Part 1",73.48 (11.08) mmHg
same,"Seated AOBP SBP change from baseline (CFB), Mean (SD)","Week 7, Part 1",−11.04 (16.75) mmHg
same,"Seated AOBP SBP, Mean (SD)","Week 7, Part 1",134.32 (18.32) mmHg
same,"Seated AOBP DBP change from baseline (CFB), Mean",Week 7,−6.13 mmHg
same,"Seated AOBP DBP, Mean",Week 7,71.61 mmHg
same,"Seated AOBP SBP change from baseline (CFB), Mean",Week 7,−11.66 mmHg
same,"Seated AOBP SBP, Mean",Week 7,128.75 mmHg
same,"LSM Δ from Placebo, change from baseline in seated AOBP SBP (MMRM)","Week 8, Part 1",−7.81 mmHg
same,"LSM Δ with Placebo, seated AOBP DBP (MMRM)","Week 8, Part 1",−4.11 mmHg
same,"Modelled (MMRM) LSM (SEM) change from baseline, seated AOBP DBP","Week 8, Part 1",−5.75 (1.77) mmHg
same,"Modelled (MMRM) LSM (SEM) change from baseline, seated AOBP SBP","Week 8, Part 1",−11.92 (2.77) mmHg
same,"Seated AOBP DBP change from baseline (CFB), Mean (SD)","Week 8, Part 1",−5.46 (7.85) mmHg
same,"Seated AOBP DBP, Mean (SD)","Week 8, Part 1",73.00 (9.43) mmHg
same,"Seated AOBP SBP change from baseline (CFB), Mean (SD)","Week 8, Part 1",−14.08 (13.26) mmHg
same,"Seated AOBP SBP, Mean (SD)","Week 8, Part 1",131.28 (14.13) mmHg
same,Subjects with seated AOBP SBP/DBP ≤130/80 mmHg: No,"Week 8, Part 1",21 (70.0) n (%)
same,Subjects with seated AOBP SBP/DBP ≤130/80 mmHg: Yes,"Week 8, Part 1",9 (30.0) n (%)
same,"Seated AOBP DBP change from baseline (CFB), Mean",Week 8,−5.68 mmHg
same,"Seated AOBP DBP, Mean",Week 8,72.17 mmHg
same,"Seated AOBP SBP change from baseline (CFB), Mean",Week 8,−11.20 mmHg
same,"Seated AOBP SBP, Mean",Week 8,129.30 mmHg
